Here are results for 14 molecules from ChEMBL document CHEMBL1955729, “N⁴-(3-Bromophenyl)-7-(substituted benzyl) pyrrolo[2,3-d]pyrimidines as potent multiple receptor tyrosine kinase inhibitors: design, synthesis, and in vivo evaluation” (Bioorg Med Chem, 2012).

Activity calls are given as the source filed them. The calls are words filed in the database; no cut-off is given here. Where only a bound is given, the exact number is not on record here.

For one series, the target named is T1, Vascular endothelial growth factor receptor 1 (Homo sapiens, UniProt P17948).
T1 sequence (P17948 whole entry): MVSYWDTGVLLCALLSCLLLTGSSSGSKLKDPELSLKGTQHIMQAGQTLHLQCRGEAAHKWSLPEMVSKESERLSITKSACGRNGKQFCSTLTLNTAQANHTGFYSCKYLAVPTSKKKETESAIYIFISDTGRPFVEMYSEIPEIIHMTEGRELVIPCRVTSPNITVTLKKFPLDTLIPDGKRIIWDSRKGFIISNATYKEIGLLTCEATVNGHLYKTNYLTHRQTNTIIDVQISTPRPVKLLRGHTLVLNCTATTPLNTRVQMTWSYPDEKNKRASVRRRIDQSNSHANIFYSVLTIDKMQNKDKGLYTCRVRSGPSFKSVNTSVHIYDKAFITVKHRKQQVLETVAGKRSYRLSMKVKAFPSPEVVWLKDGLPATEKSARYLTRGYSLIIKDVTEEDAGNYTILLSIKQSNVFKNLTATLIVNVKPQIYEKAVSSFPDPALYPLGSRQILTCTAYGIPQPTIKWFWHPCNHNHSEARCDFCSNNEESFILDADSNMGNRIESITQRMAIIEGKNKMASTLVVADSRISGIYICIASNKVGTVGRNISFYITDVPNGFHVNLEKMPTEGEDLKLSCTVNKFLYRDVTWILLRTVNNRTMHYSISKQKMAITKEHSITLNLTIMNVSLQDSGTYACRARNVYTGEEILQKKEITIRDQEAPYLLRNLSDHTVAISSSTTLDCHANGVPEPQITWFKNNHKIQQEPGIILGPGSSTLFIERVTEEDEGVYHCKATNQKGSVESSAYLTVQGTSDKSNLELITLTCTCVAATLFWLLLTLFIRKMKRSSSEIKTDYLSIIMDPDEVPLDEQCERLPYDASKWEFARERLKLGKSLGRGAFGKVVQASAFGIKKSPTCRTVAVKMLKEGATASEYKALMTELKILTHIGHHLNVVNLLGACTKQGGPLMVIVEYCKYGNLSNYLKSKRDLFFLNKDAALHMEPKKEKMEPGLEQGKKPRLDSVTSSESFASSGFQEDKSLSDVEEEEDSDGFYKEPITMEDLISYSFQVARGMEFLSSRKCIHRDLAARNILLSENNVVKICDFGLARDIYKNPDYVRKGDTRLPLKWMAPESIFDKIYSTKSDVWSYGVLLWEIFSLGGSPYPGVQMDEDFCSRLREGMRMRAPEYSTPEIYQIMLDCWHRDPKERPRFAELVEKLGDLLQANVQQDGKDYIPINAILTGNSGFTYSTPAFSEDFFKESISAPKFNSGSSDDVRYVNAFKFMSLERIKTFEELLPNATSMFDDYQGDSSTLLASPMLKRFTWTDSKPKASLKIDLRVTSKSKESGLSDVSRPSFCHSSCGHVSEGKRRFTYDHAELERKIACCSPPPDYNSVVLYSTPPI
Conditions: not given
Consider `Nc1nc(Nc2cccc(Br)c2)c2cc(Cc3ccc(Cl)cc3)[nH]c2n1`, for which the 50% inhibitory concentration (IC50) (in general, the concentration at which inhibition is half-maximal) came to 42.7 µM.

Another series deals with Mus musculus. Nature of the series: (§1) Toxicity in NCr nu/nu mouse assessed as body weight loss administered for 3 days per week measured after 6 weeks. Format: organism-based. Conditions: in vivo, 1008 h.
For `Cc1[nH]c(/C=C2\C(=O)Nc3ccccc32)c(C)c1CCC(=O)O` [ORANTINIB], the MTD came to 10 mg/kg.

Tested on in another series: not listed separately
The series is described as §1. It is filed as organism-based. Conditions: NCr nu/nu, in vivo.
For the molecule `Nc1nc(Nc2cccc(Br)c2)c2ccn(Cc3ccccc3Cl)c2n1`, the MTD at 1008 h came to 35 mg/kg.

The subject of another series is COLO 205. The experiment in a line: Antitumor activity against human COLO205 cells xenografted in athymic NIH-II mouse assessed as decrease in tumor growth rate at 10 mg/kg, ip administered 3 days per week relative to control. Also noted: dose 10 mg/kg.
Conditions: not given
Format: functional, organism-based. A general note: Xenograft models place foreign cells or tissue in a host animal.
For the molecule `Cc1[nH]c(/C=C2\C(=O)Nc3ccccc32)c(C)c1CCC(=O)O` [ORANTINIB], the TGI entry is “Active”.

In a further series the target is T2, Vascular endothelial growth factor receptor 2 (Homo sapiens, UniProt P35968).
T2 sequence (P35968 whole entry): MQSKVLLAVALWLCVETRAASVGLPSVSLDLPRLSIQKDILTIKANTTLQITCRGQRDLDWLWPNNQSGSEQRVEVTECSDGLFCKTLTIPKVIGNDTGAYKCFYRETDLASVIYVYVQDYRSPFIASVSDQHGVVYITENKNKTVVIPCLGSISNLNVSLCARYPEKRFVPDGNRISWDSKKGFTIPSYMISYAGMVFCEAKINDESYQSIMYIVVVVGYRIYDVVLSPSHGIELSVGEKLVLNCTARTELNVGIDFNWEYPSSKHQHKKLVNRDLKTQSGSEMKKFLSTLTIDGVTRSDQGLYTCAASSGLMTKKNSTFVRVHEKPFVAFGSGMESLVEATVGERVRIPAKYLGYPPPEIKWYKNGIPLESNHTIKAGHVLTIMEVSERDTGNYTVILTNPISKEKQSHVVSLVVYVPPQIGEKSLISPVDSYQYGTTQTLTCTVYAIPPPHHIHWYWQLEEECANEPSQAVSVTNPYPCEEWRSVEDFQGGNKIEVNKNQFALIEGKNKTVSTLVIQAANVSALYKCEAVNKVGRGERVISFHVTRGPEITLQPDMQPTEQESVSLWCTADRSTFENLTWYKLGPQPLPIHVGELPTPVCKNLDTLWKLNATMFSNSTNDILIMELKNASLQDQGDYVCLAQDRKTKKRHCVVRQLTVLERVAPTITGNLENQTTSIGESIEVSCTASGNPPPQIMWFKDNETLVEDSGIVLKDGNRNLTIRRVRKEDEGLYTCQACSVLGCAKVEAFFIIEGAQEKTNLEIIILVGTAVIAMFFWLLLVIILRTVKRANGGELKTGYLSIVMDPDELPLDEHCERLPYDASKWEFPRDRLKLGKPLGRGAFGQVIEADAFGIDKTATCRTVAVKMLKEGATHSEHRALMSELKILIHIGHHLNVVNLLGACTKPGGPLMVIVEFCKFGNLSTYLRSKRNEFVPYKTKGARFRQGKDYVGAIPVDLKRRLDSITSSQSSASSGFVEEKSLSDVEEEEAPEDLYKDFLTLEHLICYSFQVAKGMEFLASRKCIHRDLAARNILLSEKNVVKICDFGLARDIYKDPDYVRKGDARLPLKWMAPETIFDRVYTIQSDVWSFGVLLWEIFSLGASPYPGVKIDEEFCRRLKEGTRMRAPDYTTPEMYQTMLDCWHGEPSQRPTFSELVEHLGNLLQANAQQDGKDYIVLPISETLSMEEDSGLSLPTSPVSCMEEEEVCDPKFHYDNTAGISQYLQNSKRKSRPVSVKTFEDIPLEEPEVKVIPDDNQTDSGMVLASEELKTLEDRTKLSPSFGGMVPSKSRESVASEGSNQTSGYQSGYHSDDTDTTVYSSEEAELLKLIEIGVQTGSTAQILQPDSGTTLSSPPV
Conditions: not given
`Nc1nc(Nc2cccc(Br)c2)c2ccn(Cc3ccc(Cl)cc3)c2n1` came in with an IC50 of 65.3 µM.
In turn, `Nc1nc(Nc2cccc(Br)c2)c2ccn(Cc3ccccc3Cl)c2n1` returned an IC50 of 17.9 µM.
Regarding `COc1ccc(OC)c(Cn2ccc3c(Nc4cccc(Br)c4)nc(N)nc32)c1`, the IC50 was above 200 µM.
As for `Nc1nc(Nc2cccc(Br)c2)c2ccn(Cc3ccc(Cl)c(Cl)c3)c2n1`, the IC50 amounted to 64.5 µM.
For `Nc1nc(Nc2cccc(Br)c2)c2ccn(Cc3ccc(Cl)cc3Cl)c2n1`, the half-inhibitory concentration (IC50) is above 200 µM.
`COc1cc(Cn2ccc3c(Nc4cccc(Br)c4)nc(N)nc32)cc(OC)c1OC` gave an IC50 of 25.7 µM.
`Nc1nc(Nc2cccc(Br)c2)c2ccn(Cc3ccc4ccccc4c3)c2n1` yielded a half-maximal inhibitory concentration (IC50) of 22.9 µM.
In the case of `Nc1nc(Nc2cccc(Br)c2)c2ccn(Cc3ccc(-c4ccccc4)cc3)c2n1`, the IC50 is 22.9 µM.
On to `Nc1nc(Nc2cccc(Br)c2)c2ccn(Cc3cccc4ccccc34)c2n1`, for which the concentration for half-maximal inhibition (IC50) came to 14.9 µM.
Same read-out and setting: as for `Cc1ccccc1Cn1ccc2c(Nc3cccc(Br)c3)nc(N)nc21`, the figure is 113 µM; as for `Nc1nc(Nc2cccc(Br)c2)c2ccn(Cc3ccccc3)c2n1`, 23.8 µM.

Another series concerns COLO 205. The experiment in a line: Antimetastatic activity against human COLO205 cells xenografted in athymic NIH-II mouse at 35 mg/kg, ip administered for 3 days per week by hematoxylin and eosin staining. Format: functional, organism-based. On the set-up: dose 35 mg/kg.
Conditions: not given
Take `Nc1nc(Nc2cccc(Br)c2)c2ccn(Cc3ccccc3Cl)c2n1`: the outcome was Active.

In a further series the target is T2, Vascular endothelial growth factor receptor 2.
Conditions: not given
This is another data set of the same source.
As to `Nc1nc(Nc2cccc(Br)c2)c2cc(Cc3ccc(Cl)cc3)[nH]c2n1`, the 50% inhibitory concentration (IC50) amounted to 8.28 µM.

The subject of a further series is COLO 205. The experiment in a line: Antitumor activity against human COLO205 cells xenografted in athymic NIH-II mouse assessed as decrease in tumor growth rate at 35 mg/kg, ip administered 3 days per week relative to control. Format: functional, organism-based. On the set-up: dose 35 mg/kg.
Conditions: not given
As to `Nc1nc(Nc2cccc(Br)c2)c2ccn(Cc3ccccc3Cl)c2n1`, the TGI result was “Active”.

For another series, the target named is Epidermal growth factor receptor (Homo sapiens, UniProt P00533).
Epidermal growth factor receptor, sequence (P00533 whole entry): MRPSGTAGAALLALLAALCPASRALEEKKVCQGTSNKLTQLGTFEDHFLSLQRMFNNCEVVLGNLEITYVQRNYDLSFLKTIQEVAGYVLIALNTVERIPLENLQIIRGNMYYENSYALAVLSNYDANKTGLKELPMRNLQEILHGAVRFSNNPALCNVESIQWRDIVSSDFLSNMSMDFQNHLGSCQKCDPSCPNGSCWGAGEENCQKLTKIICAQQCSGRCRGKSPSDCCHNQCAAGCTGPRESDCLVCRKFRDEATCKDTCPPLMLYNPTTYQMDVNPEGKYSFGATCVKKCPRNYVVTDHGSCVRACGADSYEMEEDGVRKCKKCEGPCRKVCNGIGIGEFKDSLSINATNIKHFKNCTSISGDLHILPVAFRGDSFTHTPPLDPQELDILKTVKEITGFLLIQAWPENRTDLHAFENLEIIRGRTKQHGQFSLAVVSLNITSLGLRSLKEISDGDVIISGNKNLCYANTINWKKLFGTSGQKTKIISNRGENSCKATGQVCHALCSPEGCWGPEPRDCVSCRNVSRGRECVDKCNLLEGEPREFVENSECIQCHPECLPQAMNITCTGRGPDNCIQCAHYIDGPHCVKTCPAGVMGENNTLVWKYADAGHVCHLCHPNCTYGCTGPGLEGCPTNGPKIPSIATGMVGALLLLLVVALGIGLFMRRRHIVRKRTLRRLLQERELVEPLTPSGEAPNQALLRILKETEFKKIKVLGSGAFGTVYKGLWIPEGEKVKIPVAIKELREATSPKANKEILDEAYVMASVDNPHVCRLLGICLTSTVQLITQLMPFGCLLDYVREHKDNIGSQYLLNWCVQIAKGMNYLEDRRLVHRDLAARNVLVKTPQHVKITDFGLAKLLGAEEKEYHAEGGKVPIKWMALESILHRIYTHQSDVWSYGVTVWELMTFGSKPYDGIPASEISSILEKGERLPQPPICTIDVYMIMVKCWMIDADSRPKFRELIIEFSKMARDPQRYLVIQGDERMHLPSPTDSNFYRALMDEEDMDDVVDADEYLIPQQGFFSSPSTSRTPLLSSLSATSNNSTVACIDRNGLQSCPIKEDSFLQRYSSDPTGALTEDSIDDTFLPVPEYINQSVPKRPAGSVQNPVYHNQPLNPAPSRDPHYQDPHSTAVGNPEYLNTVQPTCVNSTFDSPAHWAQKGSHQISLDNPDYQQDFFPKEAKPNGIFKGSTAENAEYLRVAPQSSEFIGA
Conditions: not given
For `Nc1nc(Nc2cccc(Br)c2)c2ccn(Cc3ccc(Cl)cc3)c2n1`, the half-inhibitory concentration (IC50) was found to be 99.9 µM.
On the same count and under the same terms, for `Nc1nc(Nc2cccc(Br)c2)c2ccn(Cc3ccccc3Cl)c2n1` the value was above 200 µM; for `COc1ccc(OC)c(Cn2ccc3c(Nc4cccc(Br)c4)nc(N)nc32)c1`, 69.2 µM; for `Nc1nc(Nc2cccc(Br)c2)c2ccn(Cc3ccc(Cl)c(Cl)c3)c2n1`, above 200 µM.
Consider `Nc1nc(Nc2cccc(Br)c2)c2ccn(Cc3ccc(Cl)cc3Cl)c2n1`, for which the half-inhibitory concentration (IC50) was above 200 µM.
The molecule `COc1cc(Cn2ccc3c(Nc4cccc(Br)c4)nc(N)nc32)cc(OC)c1OC` displayed an IC50 above 200 µM.
With `Nc1nc(Nc2cccc(Br)c2)c2ccn(Cc3ccc4ccccc4c3)c2n1`, the IC50 was above 200 µM.
With `Nc1nc(Nc2cccc(Br)c2)c2ccn(Cc3ccc(-c4ccccc4)cc3)c2n1`, the IC50 is above 200 µM.
Still for that read-out and setting: as for `Nc1nc(Nc2cccc(Br)c2)c2ccn(Cc3cccc4ccccc34)c2n1`, the figure is above 200 µM; as for `Cc1ccccc1Cn1ccc2c(Nc3cccc(Br)c3)nc(N)nc21`, 113 µM; as for `Nc1nc(Nc2cccc(Br)c2)c2ccn(Cc3ccccc3)c2n1`, 166 µM.

For the next series, the target named is T3, Platelet-derived growth factor receptor beta (Homo sapiens, UniProt P09619).
T3 sequence (P09619 whole entry): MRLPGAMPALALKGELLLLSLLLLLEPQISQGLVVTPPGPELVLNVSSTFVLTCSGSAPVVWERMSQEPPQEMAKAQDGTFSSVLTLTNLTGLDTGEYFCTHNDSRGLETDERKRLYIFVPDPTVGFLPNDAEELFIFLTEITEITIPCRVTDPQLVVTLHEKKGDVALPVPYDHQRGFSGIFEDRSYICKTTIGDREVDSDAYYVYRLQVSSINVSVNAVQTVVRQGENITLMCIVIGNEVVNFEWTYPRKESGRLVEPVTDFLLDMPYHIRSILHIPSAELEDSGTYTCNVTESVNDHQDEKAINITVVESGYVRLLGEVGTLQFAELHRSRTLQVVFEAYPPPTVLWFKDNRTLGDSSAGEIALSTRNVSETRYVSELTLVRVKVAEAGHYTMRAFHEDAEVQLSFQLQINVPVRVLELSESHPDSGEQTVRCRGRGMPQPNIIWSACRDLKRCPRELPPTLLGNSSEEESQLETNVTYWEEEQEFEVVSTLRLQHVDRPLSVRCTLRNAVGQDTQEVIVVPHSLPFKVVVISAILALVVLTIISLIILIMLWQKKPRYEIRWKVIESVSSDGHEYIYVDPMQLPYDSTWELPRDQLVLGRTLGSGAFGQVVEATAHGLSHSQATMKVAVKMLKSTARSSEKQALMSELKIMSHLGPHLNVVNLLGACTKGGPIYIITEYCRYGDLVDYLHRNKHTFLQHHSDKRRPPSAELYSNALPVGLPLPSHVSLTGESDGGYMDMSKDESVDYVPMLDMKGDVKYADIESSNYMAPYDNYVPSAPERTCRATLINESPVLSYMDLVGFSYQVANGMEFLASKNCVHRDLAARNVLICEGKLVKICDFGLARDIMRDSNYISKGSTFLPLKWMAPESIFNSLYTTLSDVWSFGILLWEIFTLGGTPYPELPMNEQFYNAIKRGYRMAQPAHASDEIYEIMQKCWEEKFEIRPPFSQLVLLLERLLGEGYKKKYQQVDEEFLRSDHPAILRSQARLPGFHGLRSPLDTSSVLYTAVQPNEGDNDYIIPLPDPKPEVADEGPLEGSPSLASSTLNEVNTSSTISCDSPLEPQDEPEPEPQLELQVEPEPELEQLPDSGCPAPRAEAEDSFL
Conditions: not given
Molecule `Nc1nc(Nc2cccc(Br)c2)c2cc(Cc3ccc(Cl)c(Cl)c3)[nH]c2n1` gave an IC50 above 50 µM.
Still for that read-out and setting: as for `Nc1nc(Nc2cccc(Br)c2)c2cc(Cc3ccc(Cl)cc3)[nH]c2n1`, the figure is above 50 µM.

For another series, the target named is T3, Platelet-derived growth factor receptor beta. The experiment in a line: Inhibition of PDGFBB-induced PDGFRbeta autophosphorylation in human SF539 cells incubated for 60 mins prior to PDGFBB-induction measured after 10 mins by phosphotyrosine ELISA.
Conditions: not given
Format: cell-based, SF-539. (In an ELISA, binding on a coated surface is turned into a signal by an enzyme label.)
For the molecule `Nc1nc(Nc2cccc(Br)c2)c2ccn(Cc3ccc(Cl)cc3)c2n1`, the IC50 was above 500 µM.
Take `Nc1nc(Nc2cccc(Br)c2)c2ccn(Cc3ccccc3Cl)c2n1`: 1.5 µM corresponded to half-maximal inhibition (IC50).
For the molecule `Nc1nc(Nc2cccc(Br)c2)c2ccn(Cc3ccc(Cl)c(Cl)c3)c2n1`, inhibition was half-maximal at 230 µM (IC50).
In the case of `Nc1nc(Nc2cccc(Br)c2)c2ccn(Cc3ccc(Cl)cc3Cl)c2n1`, the IC50 amounted to 34.2 µM.
Molecule `COc1cc(Cn2ccc3c(Nc4cccc(Br)c4)nc(N)nc32)cc(OC)c1OC` displayed an IC50 of 1.8 µM.
On the same count and under the same terms, as for `Nc1nc(Nc2cccc(Br)c2)c2ccn(Cc3ccc4ccccc4c3)c2n1`, the figure is 212 µM.
`Nc1nc(Nc2cccc(Br)c2)c2ccn(Cc3ccc(-c4ccccc4)cc3)c2n1` came in with an IC50 of 129 µM.
Still for that read-out and setting: for `Nc1nc(Nc2cccc(Br)c2)c2ccn(Cc3cccc4ccccc34)c2n1` the value was 129 µM; for `Cc1ccccc1Cn1ccc2c(Nc3cccc(Br)c3)nc(N)nc21`, 160 µM.
The molecule `Nc1nc(Nc2cccc(Br)c2)c2ccn(Cc3ccccc3)c2n1` had a 50% inhibitory concentration (IC50) above 500 µM.

For the next series, the target named is T1, Vascular endothelial growth factor receptor 1.
Conditions: not given
The source holds these as a separate data set.
The molecule `Nc1nc(Nc2cccc(Br)c2)c2ccn(Cc3ccc(Cl)cc3)c2n1` registered a half-maximal inhibitory concentration (IC50) of 79.9 µM.
The same measure, in the same setting: for `Nc1nc(Nc2cccc(Br)c2)c2ccn(Cc3ccccc3Cl)c2n1` the value was 126 µM; for `COc1ccc(OC)c(Cn2ccc3c(Nc4cccc(Br)c4)nc(N)nc32)c1`, above 200 µM.
`Nc1nc(Nc2cccc(Br)c2)c2ccn(Cc3ccc(Cl)c(Cl)c3)c2n1` showed an IC50 of 119 µM.
With `Nc1nc(Nc2cccc(Br)c2)c2ccn(Cc3ccc(Cl)cc3Cl)c2n1`, the half-maximal inhibitory concentration (IC50) is 138 µM.
For `COc1cc(Cn2ccc3c(Nc4cccc(Br)c4)nc(N)nc32)cc(OC)c1OC`, the IC50 came out at 156 µM.
`Nc1nc(Nc2cccc(Br)c2)c2ccn(Cc3ccc4ccccc4c3)c2n1`: the midpoint of inhibition, the IC50, lay at 50.8 µM.
With `Nc1nc(Nc2cccc(Br)c2)c2ccn(Cc3ccc(-c4ccccc4)cc3)c2n1`, the IC50 is above 200 µM.
With `Nc1nc(Nc2cccc(Br)c2)c2ccn(Cc3cccc4ccccc34)c2n1`, the IC50 worked out at 150 µM.
`Cc1ccccc1Cn1ccc2c(Nc3cccc(Br)c3)nc(N)nc21` displayed an IC50 of 129 µM.
The molecule `Nc1nc(Nc2cccc(Br)c2)c2ccn(Cc3ccccc3)c2n1` registered an IC50 of 99.3 µM.

A further series relates to COLO 205. Nature of the series: Antimetastatic activity against human COLO205 cells xenografted in athymic NIH-II mouse at 10 mg/kg, ip administered for 3 days per week by hematoxylin and eosin staining.
Conditions: not given
Format: functional, organism-based. Also noted: dose 10 mg/kg.
With `Cc1[nH]c(/C=C2\C(=O)Nc3ccccc32)c(C)c1CCC(=O)O` [ORANTINIB], the result was inactive.

The test system of another series is COLO 205. Nature of the series: Antiangiogenic activity in human COLO205 cells xenografted in athymic NIH-II mouse at 10 mg/kg, ip administered 3 days per week by hematoxylin and eosin staining relative to control.
Conditions: not given
On the set-up: dose 10 mg/kg. Format: functional, organism-based.
As for `Cc1[nH]c(/C=C2\C(=O)Nc3ccccc32)c(C)c1CCC(=O)O` [ORANTINIB], the outcome was Active.

The next series deals with COLO 205. The experiment in a line: Antiangiogenic activity in human COLO205 cells xenografted in athymic NIH-II mouse at 35 mg/kg, ip administered 3 days per week by hematoxylin and eosin staining relative to control. It is filed as functional, organism-based. Also noted: dose 35 mg/kg.
Conditions: not given
Turning to `Nc1nc(Nc2cccc(Br)c2)c2ccn(Cc3ccccc3Cl)c2n1`, the result was Active.
